Reference: patent US10676446B2, “Bicyclic quinazolinone derivatives” (Hoffmann-La Roche Inc., priority 2015, dated 2020)

biological target: human ATX (autotaxin, ENPP2), His-tagged (Homo sapiens (Human), UniProt Q13822); assay: Human ATX enzyme inhibition assay (fluorescence quenching, MR121 substrate); assay type: biochemical; settings: 30 nM ATX, 1 μM MR121 substrate, 30° C., pH 8.0
Outline: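 His-tagged human ATX (30 nM final) preincubated 15 min at 30 °C with serially diluted compound in Tris-HCl pH 8.0 buffer with Ca2+, Mg2+ and 0.01% Triton X-100. MR121-labelled fluorescence-quenched substrate then added (1 μM final) for a further 15 min at 30 °C; fluorescence read-out.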

First: CN(Cc1ccc(Cl)c(Cl)c1)C(=O)Cn1cnc2ccc(C3CCN(C(=O)C4(O)CC4)CC3)cc2c1=O [Example 179]
Second: C[C@@H](O)C(=O)N1CCC(c2ccc3ncn(CC(=O)N(C)Cc4ccc(Cl)c(Cl)c4)c(=O)c3c2)CC1 [Example 174]
The IC50 of the first is 78-fold higher: 156 nM for the first, 2 nM for the second.

`CC(=O)N1CC2CC1CC2c1ccc2ncn(CC(=O)NCc3ccc(Cl)c(Cl)c3)c(=O)c2c1` (stereo not shown) [Example 147, 2-[6-[2-Acetyl-2-azabicyclo[2.2.1]heptan-5-yl]-4-oxoquinazolin-3-yl]-N-[(3,4-dichlorophenyl)methyl]acetamide] and `CC(=O)N1CCN(c2ccc3ncn(CC(=O)NCCc4ccc(Cl)c(Cl)c4)c(=O)c3c2)CC1` [Example 49] are within 1.5-fold of each other in IC50: 140 nM for the first, 179 nM for the second.

Going from `O=C(Cn1cnc2ccc(N3CCN(CC(O)CO)CC3)cc2c1=O)NCc1ccc(Cl)c(Cl)c1` (stereo not shown) [Example 95] to `O=C(Cn1cnc2ccc(N3CCN(CC4CCOC4)CC3)cc2c1=O)NCc1ccc(Cl)c(Cl)c1` (stereo not shown) [Example 97], the IC50 falls from 68 nM to 4 nM (17-fold).

Compared with `CC(C)C(=O)N1CCN(c2ccc3ncn(CC(=O)N(C)Cc4ccc(Cl)c(Cl)c4)c(=O)c3c2)CC1` [Example 69], `CN(Cc1ccc(Cl)c(Cl)c1)C(=O)Cn1cnc2ccc(N3CCN(C(=O)C4CCC4)CC3)cc2c1=O` [Example 73] is 2-fold higher in IC50: 3 nM for the first, 6 nM for the second.

Going from `CC(=O)N1CCC(c2cc3c(=O)n(CC(=O)N(C)Cc4ccc(C#N)c(Cl)c4)cnc3cn2)CC1` [Example 189, 2-[6-(1-Acetylpiperidin-4-yl)-4-oxopyrido[3,4-d]pyrimidin-3-yl]-N-[(3-chloro-4-cyanophenyl)methyl]-N-methylacetamide] to `CN(Cc1ccc(C#N)c(Cl)c1)C(=O)Cn1cnc2ccc(C3CCN(C(=O)C4CC(F)C4)CC3)cc2c1=O` (stereo not shown) [Example 138], the IC50 rises from 1 nM to 3 nM (3-fold). The first is the more potent here.

`CN(C)C(=O)CN1CCN(c2ccc3ncn(CC(=O)N(C)Cc4ccc(Cl)c(Cl)c4)c(=O)c3c2)CC1` [Example 108] and `CN(Cc1ccc(Cl)c(Cl)c1)C(=O)Cn1cnc2ccc(N3CCN(CC4CC4)CC3)cc2c1=O` [Example 104, 2-[6-[4-(Cyclopropylmethyl)piperazin-1-yl]-4-oxoquinazolin-3-yl]-N-[(3,4-dichlorophenyl)methyl]-N-methylacetamide] are within 1.5-fold of each other in IC50: 55 nM for the first, 64 nM for the second.

Going from `CC(=O)N1CCN(c2ccc3ncn(CC(=O)NCc4cc(-c5ccc(Cl)cc5)no4)c(=O)c3c2)CC1` [Example 50] to `CC(=O)N1CCN(c2ccc3ncn(CC(=O)NCc4ccc(C(F)(F)F)cc4)c(=O)c3c2)CC1` [Example 17], the IC50 falls from 456 nM to 137 nM (3.3-fold). The second is the more potent here.

Going from `O=C(Cn1cnc2ccc(N3CCN(Cc4cnc[nH]4)CC3)cc2c1=O)NCc1ccc(Cl)c(Cl)c1` [Example 101] to `CCCCC(=O)N1CCN(c2ccc3ncn(CC(=O)NCc4ccc(Cl)c(Cl)c4)c(=O)c3c2)CC1` [Example 60], the IC50 falls from 64 nM to 10 nM (6.4-fold). The second is the more potent here.

First: O=C(Cn1cnc2ccc(N3CCN(C(=O)C4CCCCC4)CC3)cc2c1=O)NCc1ccc(Cl)c(Cl)c1 [Example 65]
Second: O=C(Cn1cnc2ccc(N3CCN(S(=O)(=O)C4CCCCC4)CC3)cc2c1=O)NCc1ccc(Cl)c(Cl)c1 [Example 90]
The IC50 of the first is 3.5-fold lower: 10 nM for the first, 35 nM for the second. The first is the more potent here.

First: CN(Cc1ccc(Cl)c(Cl)c1)C(=O)Cn1cnc2ccc(N3CCN(CC4COC4)CC3)cc2c1=O [Example 106]
Second: COC(=O)CCN(Cc1ccc(Cl)c(Cl)c1)C(=O)Cn1cnc2ccc(N3CCN(C(C)=O)CC3)cc2c1=O [Example 53, Methyl 3-[[2-[6-(4-acetylpiperazin-1-yl)-4-oxoquinazolin-3-yl]acetyl]-[(3,4-dichlorophenyl)methyl]amino]propanoate]
The IC50 of the first is 7.3-fold higher: 132 nM for the first, 18 nM for the second.

First: CC(=O)N1CCC(O)(c2ccc3ncn(CC(=O)N(C)Cc4ccc(C#N)c(Cl)c4)c(=O)c3c2)CC1 [Example 185, 2-[6-(1-Acetyl-4-hydroxypiperidin-4-yl)-4-oxoquinazolin-3-yl]-N-[(3-chloro-4-cyanophenyl)methyl]-N-methylacetamide]
Second: COCC(=O)N1CCC(c2ccc3ncn(CC(=O)N(C)Cc4ccc(Cl)c(Cl)c4)c(=O)c3c2)CC1 [Example 171]
The IC50 of the first is 42-fold higher: 125 nM for the first, 3 nM for the second.

Going from `CC(=O)N1CCC(c2ccc3ncn(CC(=O)NCc4cc(Cl)cc(Cl)c4)c(=O)c3c2)CC1` [Example 164] to `COCC(=O)N1CCC(c2ccc3ncn(CC(=O)N(Cc4ccc(Cl)c(Cl)c4)C4CC4)c(=O)c3c2)CC1` [Example 146, N-Cyclopropyl-N-[(3,4-dichlorophenyl)methyl]-2-[6-[1-(2-methoxyacetyl)piperidin-4-yl]-4-oxoquinazolin-3-yl]acetamide], the IC50 falls from 25 nM to 1 nM (25-fold).

Compared with `CC(=O)N1CCN(c2ccc3ncn(CC(=O)NCc4ccc(F)c(OC(F)(F)F)c4)c(=O)c3c2)CC1` [Example 26], `NS(=O)(=O)CC(=O)N1CCN(c2ccc3ncn(CC(=O)NCc4ccc(Cl)c(Cl)c4)c(=O)c3c2)CC1` [Example 71] is 2-fold lower in IC50: 51 nM for the first, 26 nM for the second.

Compared with `CNC(=O)C[C@@H](NC(=O)Cn1cnc2ccc(N3CCN(C(C)=O)CC3)cc2c1=O)c1ccc([N+](=O)[O-])cc1` [Example 9, (3R)-3-[[2-[6-(4-Acetylpiperazin-1-yl)-4-oxoquinazolin-3-yl]acetyl]amino]-N-methyl-3-(4-nitrophenyl)propanamide], `CC(=O)N1CCN(c2ccc3[nH]c(=O)n(CC(=O)NCc4ccc(Cl)c(Cl)c4)c(=O)c3c2)CC1` [Example 152, 2-[6-(4-Acetylpiperazin-1-yl)-2,4-dioxo-1H-quinazolin-3-yl]-N-[(3,4-dichlorophenyl)methyl]acetamide] is 3.3-fold higher in IC50: 54 nM for the first, 180 nM for the second.
